# Source: the supplement of paper PMC8149375
# What was measured:
# Details in all cases: treatment: drug alone; 5 days
# 769-P [1] = experiment: GI50, drug alone; higher = less potent
# Experimental: (§1)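 Primary HTS: 8 RCC cell lines treated with 8 doses (up to 10 uM) of each library drug alone for 5 days; viability read by CellTiter-Glo and normalised to DMSO. GI50 was fitted with XLfit (4-parameter), AUC is the area under the dose-response curve, and minimum viability is the lowest fraction of DMSO viability across doses.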
# 786-O [2] = experiment: GI50, drug alone; higher = less potent
# Experimental: as §1
# A498 [3] = experiment: GI50, drug alone; higher = less potent
# Experimental: as §1
# ACHN [4] = experiment: GI50, drug alone; higher = less potent
# Experimental: as §1
# CAKI-1 [5] = experiment: GI50, drug alone; higher = less potent
# Experimental: as §1
# SN12C [6] = experiment: GI50, drug alone; higher = less potent
# Experimental: as §1
# TK-10 [7] = experiment: GI50, drug alone; higher = less potent
# Experimental: as §1
# UO-31 [8] = experiment: GI50, drug alone; higher = less potent
# Experimental: as §1
# 769-P [9] = experiment: minimum viability across doses, drug alone, relative to DMSO (fraction); higher = less growth inhibition
# Experimental: as §1
# 786-O [10] = experiment: as above
# Experimental: as §1
# A498 [11] = experiment: as above
# Experimental: as §1
# ACHN [12] = experiment: as above
# Experimental: as §1
# CAKI-1 [13] = experiment: as above
# Experimental: as §1
# SN12C [14] = experiment: as above
# Experimental: as §1
# TK-10 [15] = experiment: as above
# Experimental: as §1
# UO-31 [16] = experiment: as above
# Experimental: as §1
# 769-P [17] = experiment: AUC of dose-response viability curve, drug alone (arbitrary (AUC of normalised viability)); higher = less growth inhibition
# Experimental: as §1
# 786-O [18] = experiment: as above
# Experimental: as §1
# A498 [19] = experiment: as above
# Experimental: as §1
# ACHN [20] = experiment: as above
# Experimental: as §1
# CAKI-1 [21] = experiment: as above
# Experimental: as §1
# SN12C [22] = experiment: as above
# Experimental: as §1
# TK-10 [23] = experiment: as above
# Experimental: as §1
# UO-31 [24] = experiment: as above
# Experimental: as §1
Compound,"GI50, drug alone (786-O [2]) [µM]","GI50, drug alone (ACHN [4]) [µM]","GI50, drug alone (769-P [1]) [µM]","GI50, drug alone (A498 [3]) [µM]","GI50, drug alone (CAKI-1 [5]) [µM]","GI50, drug alone (SN12C [6]) [µM]","GI50, drug alone (TK-10 [7]) [µM]","GI50, drug alone (UO-31 [8]) [µM]",minimum viability across doses (769-P [9]),minimum viability across doses (786-O [10]),minimum viability across doses (A498 [11]),minimum viability across doses (ACHN [12]),minimum viability across doses (CAKI-1 [13]),minimum viability across doses (SN12C [14]),minimum viability across doses (TK-10 [15]),minimum viability across doses (UO-31 [16]),AUC of dose-response viability curve (769-P [17]),AUC of dose-response viability curve (786-O [18]),AUC of dose-response viability curve (A498 [19]),AUC of dose-response viability curve (ACHN [20]),AUC of dose-response viability curve (CAKI-1 [21]),AUC of dose-response viability curve (SN12C [22]),AUC of dose-response viability curve (TK-10 [23]),AUC of dose-response viability curve (UO-31 [24])
COc1cc(OC)c(/C=C/S(=O)(=O)Cc2ccc(OC)c(NCC(=O)[O][Na])c2)c(OC)c1,0.0233,0.123,0.0821,0.0912,0.0743,0.216,0.327,0.0855,0.0669,0.00295,0.154,0.102,0.119,0.124,0.273,0.0069,1.49,0.88,1.91,1.7,1.63,2.01,2.13,1.46
COc1cc2ncnc(Nc3cccc(Br)c3)c2cc1OC.Cl,6.69,0.582,1.49,> 10,8.68,> 10,1.36,6.95,0.357,0.00889,0.923,0.268,0.378,0.825,0.181,0.0153,2.36,2.81,4.63,2.07,2.92,3.17,2.36,4.18
OCCn1cc(-c2cnc3nnn(Cc4ccc5ncccc5c4)c3n2)cn1,> 10,> 10,> 10,> 10,> 10,> 10,> 10,> 10,0.883,1.01,0.984,0.542,0.615,0.879,0.804,1.15,3.3,4,4.04,2.48,2.32,3.37,3.18,4.37
O=c1cc(N2CCOCC2)oc2c(-c3cccc4c3sc3ccccc34)cccc12,3.26,6.82,9.84,> 10,2.78,> 10,9.09,> 10,0.489,0.0967,0.62,0.35,0.184,0.561,0.447,0.476,3.36,2.69,3.5,3.44,2.74,3.26,3.15,3.93
O=c1cc(N2CCOCC2)oc2c(-c3ccccc3)cccc12,> 10,> 10,> 10,> 10,> 10,> 10,> 10,> 10,0.617,0.559,0.929,0.723,0.642,0.765,0.684,0.858,3.1,2.62,3.75,2.91,3.37,3.36,2.97,3.98
COc1cccc(-c2cc(=O)c3ccccc3o2)c1N,> 10,> 10,> 10,> 10,> 10,> 10,> 10,> 10,0.903,0.69,1.03,0.861,0.83,0.873,0.817,1.36,3.39,2.79,4.28,3.35,3.19,3.4,3.09,5.36
CN1CCN(c2ccc([N+](=O)[O-])c3no[n+]([O-])c23)CC1,> 10,> 10,> 10,> 10,> 10,> 10,> 10,> 10,0.865,0.536,0.889,0.822,0.881,0.832,0.3,0.867,2.59,2.38,3.92,2.98,3.27,3.13,2.91,3.8
CCN(CC)CCCCNc1ncc2cc(-c3cc(OC)cc(OC)c3)c(NC(=O)NC(C)(C)C)nc2n1,2.36,0.779,9.27,6.94,0.614,8.23,4.78,7.93,0.461,0.00314,0.265,0.0868,0.074,0.338,0.348,0.128,3.21,2.06,3.77,2.2,2.27,2.73,2.69,3.7

# Further lines, with some results ahead:
"GI50, drug alone (786-O [2]) [µM]","GI50, drug alone (ACHN [4]) [µM]",Compound,"GI50, drug alone (769-P [1]) [µM]","GI50, drug alone (A498 [3]) [µM]","GI50, drug alone (CAKI-1 [5]) [µM]","GI50, drug alone (SN12C [6]) [µM]","GI50, drug alone (TK-10 [7]) [µM]","GI50, drug alone (UO-31 [8]) [µM]",minimum viability across doses (769-P [9]),minimum viability across doses (786-O [10]),minimum viability across doses (A498 [11]),minimum viability across doses (ACHN [12]),minimum viability across doses (CAKI-1 [13]),minimum viability across doses (SN12C [14]),minimum viability across doses (TK-10 [15]),minimum viability across doses (UO-31 [16]),AUC of dose-response viability curve (769-P [17]),AUC of dose-response viability curve (786-O [18]),AUC of dose-response viability curve (A498 [19]),AUC of dose-response viability curve (ACHN [20]),AUC of dose-response viability curve (CAKI-1 [21]),AUC of dose-response viability curve (SN12C [22]),AUC of dose-response viability curve (TK-10 [23]),AUC of dose-response viability curve (UO-31 [24])
0.21,2.59,CN(c1ncccc1CNc1nc(Nc2ccc3c(c2)CC(=O)N3)ncc1C(F)(F)F)S(C)(=O)=O.O=S(=O)(O)c1ccccc1,4.89,7.73,5.15,3.88,4.46,4.55,0.0576,0.00443,0.018,0.0138,0.0631,0.0169,0.132,0.0117,3.06,1.79,3.68,2.86,3.34,2.94,2.8,3.81
0.0151,0.0806,CC(=O)NCC(=O)N1[C@H]2CC[C@H]1c1cc(Nc3ncc(C(F)(F)F)c(NC4CCC4)n3)ccc12,0.375,4.77,0.173,0.557,0.725,2.64,0.0288,0.0093,0.0256,0.0112,0.123,0.0115,0.128,0.0196,2.09,0.907,3.32,1.5,1.81,2.12,2.18,2.54
1.62,4.51,NCC(=O)Nc1ccc(-n2nc(C(F)(F)F)cc2-c2ccc3c(ccc4ccccc43)c2)cc1,3.77,3.22,4.52,4.07,4.25,0.928,0.0386,0.00641,0.0189,0.0447,0.0096,0.00771,0.326,0.00932,2.96,2.29,3.01,3.11,3.25,3.13,2.74,2.76
0.448,1.99,O=C(NOCC(O)CO)c1cc(Br)c(F)c(F)c1Nc1ccc(I)cc1F (stereo not drawn),4.98,> 10,1.25,> 10,2.84,> 10,0.427,0.263,0.89,0.372,0.202,0.602,0.419,0.816,2.62,1.94,3.58,2.42,2.32,2.83,2.4,3.29
0.221,0.857,O=C(NOC[C@H](O)CO)c1ccc(F)c(F)c1Nc1ccc(I)cc1F,0.928,3.71,0.32,2.34,0.848,3.24,0.282,0.373,0.455,0.359,0.161,0.389,0.348,0.257,2.27,1.88,2.54,2.15,1.95,2.31,2.1,2.63
> 10,3.93,C=CC(=O)N1CCC[C@@H](n2nc(-c3ccc(Oc4ccccc4)cc3)c3c(N)ncnc32)C1,1.83,> 10,7.05,> 10,1.43,> 10,0.301,0.529,0.946,0.394,0.335,0.706,0.225,0.949,2.53,2.3,6.43,2.53,3.19,2.88,2.31,4.29
3.88,0.36,CC(=O)c1c(C)c2cnc(Nc3ccc(N4CCNCC4)cn3)nc2n(C2CCCC2)c1=O.Cl,0.659,> 10,0.811,7.21,1.44,> 10,0.0631,0.298,0.644,0.136,0.123,0.427,0.185,0.549,2.31,2.8,4.74,2.04,2.44,3.17,2.43,4.32
0.13,0.99,CN(C)C1CCN(C(=O)c2ccc(NC(=O)Nc3ccc(-c4nc(N5CCOCC5)nc(N5CCOCC5)n4)cc3)cc2)CC1,5.33,0.0932,1.18,0.05,0.472,0.451,0.162,0.111,0.162,0.167,0.0321,0.112,0.133,0.0116,3.1,1.73,1.83,2.66,2.56,1.39,2.09,2.48
0.163,0.179,COc1ccc(-c2cc3c(C)nc(N)nc3n([C@H]3CC[C@H](OCCO)CC3)c2=O)cn1,0.386,1.02,0.206,0.291,0.153,0.255,0.0177,0.00335,0.193,0.067,0.0249,0.0766,0.0289,0.00736,2.05,1.76,2.91,1.79,1.78,1.98,1.72,2.06
